# The Deep4Chem optical property database
# “And” between values parts separate entries of the source, which are not always exact repeats. Equal entries are not always repeated.
# Test: solvent given as SMILES
compound,measurement,setting,value
CC1(C)c2ccccc2N(c2ccc(-c3ccc4c(c3)C(=O)c3ccc(-c5ccc(N6c7ccccc7C(C)(C)c7ccccc76)cc5)cc3C4=O)cc2)c2ccccc21,emission maximum,in Cc1ccccc1,609 nm
same,emission maximum,in c1ccc2c(c1)c1ccccc1n2-c1ccc(-c2ccc(-n3c4ccccc4c4ccccc43)cc2)cc1,564 nm
O=C(c1ccc(/C(=C(/c2ccccc2)c2ccc(C(=O)c3ccc(-n4c5ccccc5c5ccccc54)cc3)cc2)c2ccccc2)cc1)c1ccc(-n2c3ccccc3c3ccccc32)cc1,emission maximum,in C1CCOC1,502 nm
CC(C)(C)c1ccc(C2=c3sc4ccccc4c3=[N+]3C2=Nc2c(-c4ccc(C(C)(C)C)cc4)c4sc5ccccc5c4n2[B-]3(F)F)cc1,emission maximum,in C1CCOC1,800 nm
same,emission maximum,in Cc1ccccc1,796 nm
same,emission maximum,in ClC(Cl)Cl,794 nm
CCOC(=O)CN1C(=O)C2=C(c3ccc(C#N)cc3)N(CC(=O)OCC)C(=O)C2=C1c1ccc(C#N)cc1,emission maximum,in CC#N,549 nm
same,emission maximum,in CS(C)=O,557 nm
same,emission maximum,in Cc1ccccc1,558 nm
COc1ccc2[nH]cc(/C=C/C3=[NH+]c4cccc5cccc3c45)c2c1,emission maximum,in CO,583 nm
c1cncc(-c2ccc(-c3c4ccccc4c(-c4ccc(-c5cccnc5)cc4)c4ccccc34)cc2)c1,emission maximum,in ClCCl,426 nm
Cc1cc(C)c(C2=C3C=CC4=[N+]3[B-]3(Oc5ccccc54)Oc4ccccc4-c4ccc2n43)c(C)c1 (centres undefined),emission maximum,in ClC(Cl)Cl,645 nm
c1ccc(-c2nc(-c3ccccc3)nc(-c3ccc(-n4c5ccc(-c6ccc7sc8ccccc8c7c6)cc5c5cc(-c6ccc7sc8ccccc8c7c6)ccc54)cc3)n2)cc1,emission maximum,in CCOC(C)=O,473 nm
same,emission maximum,in CN(C)C=O,531 nm
same,emission maximum,in Cc1ccccc1,437 nm
CC1(C)Nc2cc(Cl)ccc2-c2[nH]c3ccccc3c(=O)c21,emission maximum,in C1CCOC1,474 nm
same,emission maximum,in CC#N,496 nm
same,emission maximum,in CCCCO,505 nm
same,emission maximum,in CCCO,505 nm
same,emission maximum,in CCO,506 nm
same,emission maximum,in CCOC(C)=O,482 nm
same,emission maximum,in CN(C)C=O,493 nm
same,emission maximum,in CO,513 nm
same,emission maximum,in CS(C)=O,494 nm
same,emission maximum,in Cc1ccccc1,460 nm
same,emission maximum,in ClC(Cl)(Cl)Cl,451 nm
same,emission maximum,in ClCCl,473 nm
same,emission maximum,in O,536 nm
same,emission maximum,in c1ccccc1,462 nm
N#Cc1nn(-c2ccc(Cl)cc2)nc1N1CCCC1,emission maximum,in CC#N,429 nm
Cc1cc2nc3c(=O)[nH]c(=O)nc-3n(C)c2cc1C,emission maximum,in CC#N,533 nm
C[Si]1(C)C(c2ccccc2)=Cc2ccccc21,emission maximum,in ClCCl,390 nm
[O-][n+]1c(-c2ccc(Br)cc2)cc(N2CCOCC2)nc1/C=C/c1ccccc1,emission maximum,in ClCCl,548 nm
CC1=[N+]2C(=C(c3c4ccccc4cc4ccccc34)c3ccc(C)n3[B-]2(F)F)C=C1,emission maximum,in C1CCOC1,528 nm
same,emission maximum,in CC#N,524 nm
same,emission maximum,in CCCCCC,524 nm and 528 nm
same,emission maximum,in CCO,524 nm
same,emission maximum,in CN(C)C=O,531 nm
same,emission maximum,in CO,527 nm
same,emission maximum,in CS(C)=O,529 nm
same,emission maximum,in Cc1ccccc1,530 nm
same,emission maximum,in ClC(Cl)Cl,526 nm
same,emission maximum,in ClCCl,528 nm
Nc1ccc(-c2ccc3c(c2)C(=O)c2ccccc2C3=O)cc1,emission maximum,in CCCCCC,512 nm
same,emission maximum,in CCOCC,643 nm
same,emission maximum,in Cc1ccccc1,599 nm
same,emission maximum,in ClC(Cl)(Cl)Cl,562 nm
same,emission maximum,in ClCCl,695 nm
Clc1ccccc1N1c2sc3ccccc3c2Sc2c1sc1ccccc21,emission maximum,in ClCCl,541 nm
CCN1c2ccc(/C=N/Nc3ccccn3)cc2Sc2cc(-c3ccc(OC)cc3)ccc21,emission maximum,in C1CCOC1,491 nm
same,emission maximum,in CS(C)=O,503 nm
same,emission maximum,in Cc1ccccc1,484 nm
same,emission maximum,in ClCCl,497 nm
CCCCCCCCc1ccc(-c2c3cc(-c4cc(CCCCCCCC)c(-c5ccc(-c6sc(/C=C7\SC(=S)N(CC)C7=O)cc6CCCCCCCC)s5)s4)sc3c(-c3ccc(CCCCCCCC)s3)c3cc(-c4cc(CCCCCCCC)c(-c5ccc(-c6sc(/C=C7\SC(=S)N(CC)C7=O)cc6CCCCCCCC)s5)s4)sc23)s1,emission maximum,in ClC(Cl)Cl,670 nm
COc1ccc(-n2c3ccccc3c3cc(/C=C/C(=C(C#N)C#N)c4ccccc4)ccc32)cc1,emission maximum,in C1CCOC1,560 nm
same,emission maximum,in CC#N,594 nm
same,emission maximum,in CC(C)=O,582 nm
same,emission maximum,in CCOC(C)=O,550 nm
same,emission maximum,in CO,597 nm
same,emission maximum,in CS(C)=O,601 nm
same,emission maximum,in Cc1ccccc1,526 nm
same,emission maximum,in ClC(Cl)Cl,554 nm
F[B-]1(F)n2c(c(-c3ccccc3)c(-c3ccccc3)c2-c2ccccc2)C(c2ccccc2)=C2C(c3ccccc3)=C(c3ccccc3)C(c3ccccc3)=[N+]21,emission maximum,in C1CCOC1,613 nm
Oc1ccc2ccccc2c1/C=N/c1ccccc1/N=C/c1c(O)ccc2ccccc12,emission maximum,in CC#N,496 nm
Cc1cccc(Nc2ccccc2C(=O)O)c1C,emission maximum,in C1CCCCC1,438 nm
same,emission maximum,in C1CCOC1,438 nm
same,emission maximum,in C1COCCO1,437 nm
same,emission maximum,in CC#N,398 nm
same,emission maximum,in CCOC(C)=O,439 nm
same,emission maximum,in CN(C)C=O,385 nm
same,emission maximum,in CO,390 nm
same,emission maximum,in ClC(Cl)Cl,442 nm
N#CC(C#N)=Cc1ccc(-c2ccc(-c3nc4ccccc4s3)c(O)c2)s1,emission maximum,in CCO,499 nm
same,emission maximum,in ClCCl,503 nm
same,emission maximum,in O,609 nm
c1ccc(-c2cc(-c3ccc(N4c5ccccc5C(c5ccccc5)(c5ccccc5)c5ccccc54)cc3)nc(-c3ccccc3)n2)cc1,emission maximum,in Cc1ccccc1,450 nm
same,emission maximum,in O=P(c1ccccc1)(c1ccccc1)c1ccccc1Oc1ccccc1P(=O)(c1ccccc1)c1ccccc1,464 nm
F[B-]1(F)n2c(cc3c2-c2ccccc2CC3)C(c2ccc(I)cc2)=C2C=C3CCc4ccccc4C3=[N+]21,emission maximum,in ClC(Cl)Cl,647 nm
COc1ccc2c(c1)c1ccc3cccc4c5cccc6oc(=O)c2c(c65)c1c34,emission maximum,in C1CCOC1,440 nm
CCCCC(CC)CN1C(=O)c2cccc3c(C#Cc4ccc(N(c5ccccc5)c5ccccc5)cc4)ccc(c23)C1=O (centres undefined),emission maximum,in C1CCCCC1,462 nm
same,emission maximum,in C1CCOC1,621 nm
same,emission maximum,in CC#N,547 nm
same,emission maximum,in Cc1ccccc1,512 nm
same,emission maximum,in ClC(Cl)Cl,582 nm
c1cc2ccc3sc4ccc5cccc6c(c1)c2c3c4c56,emission maximum,in ClC(Cl)Cl,418 nm
CC(C)(C)c1ccc(-c2nc3c4ccccc4c4ccccc4c3n2-c2ccc(-c3ccc(N(c4ccccc4)c4ccccc4)cc3)cc2)cc1,emission maximum,in ClCCl,426 nm
COc1ccc(C#Cc2c3ccccc3c(C#Cc3ccc(OC)cc3)c3cc4ccccc4cc23)cc1,emission maximum,in ClCCl,576 nm
Cc1ccc2nc3[nH]c(=O)[nH]c(=O)c3nc2c1C,emission maximum,in CC#N,469 nm
CC(=O)c1c(N[C@@H](CC(C)C)C(=O)O)c2ccc(N(C)C)cc2oc1=O,emission maximum,in ClCCl,446 nm
CCC(CC)n1c2ccccc2c2cc3c(cc21)c1ccccc1n3C(CC)CC,emission maximum,in ClC(Cl)Cl,423 nm
CCCCN1C(=O)c2ccc3c4ccc5c6c(cc(Br)c(c7ccc(c2c37)C1=O)c64)C(=O)N(CCCC)C5=O,emission maximum,in ClCCl,540 nm
CCCCn1c(-c2ccc(-c3nnc(-c4ccc(-c5nc(-c6ccccc6)c(-c6ccccc6)n5CCCC)cc4)o3)cc2)nc(-c2ccccc2)c1-c1ccccc1,emission maximum,in ClCCl,445 nm
CCN(CC)c1ccc(-n2cccc2)cc1,emission maximum,in CC#N,337 nm
same,emission maximum,in CCCCCC,326 nm
c1ccc2c(c1)CCc1ccccc1N2,emission maximum,in CC#N,354 nm
same,emission maximum,in CCCCCC,329 nm
same,emission maximum,in CO,359 nm
CCCCC1(c2ccccc2)Nc2c(-c3ccc(OC)cc3)ccc(-c3ccc(OC)cc3)c2N=C1c1ccccc1 (centres undefined),emission maximum,in C1CCOC1,547 nm
same,emission maximum,in CC#N,556 nm
same,emission maximum,in CCCCCC,517 nm
same,emission maximum,in CN(C)C=O,568 nm
same,emission maximum,in Cc1ccccc1,525 nm
same,emission maximum,in ClC(Cl)Cl,537 nm
c1ccc2c[n+]3ccccc3cc2c1,emission maximum,in O,404 nm
